From patent publication US20160362393A1, “EN[…] AGENT” (THE UNIVERSITY OF TOKYO, priority 2014, published 2016)

Tested on: 1st-stage larvae of Haemonchus contortus
Experiment: Test for effect on motion of larvae of Haemonchus nematode (Haemonchus contortus)
Assay type: cell-based
Conditions: 20 larvae per well, 27° C./95% RH for 4 days, corrected for DMSO negative control, duplicate
Method: Test for Effect on Motion of Larvae of Haemonchus Nematode (Haemonchus contortus)
The compound of the present invention was prepared as solutions in 100% DMSO at the final concentrations of 50 ppm, 5 ppm, 0.5 ppm, 0.05 ppm and 0.005 ppm. DMSO stands for dimethyl sulfoxide.
A larval suspension containing 1st-stage larvae of Haemonchus contortus harvested by the Baermann technique (for example, see K. Nakazono et al., “Inclination of Baermann funnel wall and efficiency of nematode extraction” Proc. Assoc. Pl. Prot. Kyushu 33; 126-130 (1987) was placed at a density of 20 larvae per well in a test place, and 0.5 μL/well of the test solution containing the compound of the present invention diluted to a predetermined concentration was added to the test plate. The plate was kept, under the conditions of 27° C./95% RH for 4 days. In the test, ivermectin was used for the positive control and DMSO was used for the negative control.
The motor ability of the larvae was examined with an automatic analyzer equipped with an LCD camera. The inhibitory effect on the motion of the larvae in each treatment plot was corrected based on the inhibitory effect in the plot treated with DMSO only for the negative control. The EC50 value was calculated from the data on the corrected inhibitory effect on the motion of the larvae, and graded according to the criteria shown below.
The test was conducted in duplicate per plot.

| SMILES | EC50 value, inhibitory effect on the motion of the larvae (graded) |
| --- | --- |
| O=C(NCCc1ccc(-c2ccc(C(F)(F)F)cc2)cc1Cl)c1nccnc1C(F)(F)F [Compound 1-31] | C or higher |
| O=C(NCCc1ccc(Oc2ccc(C(F)(F)F)cn2)cc1Cl)c1nccnc1C(F)(F)F [Compound 1-2] | C or higher |
| O=C(NCC1(c2ccc(Oc3ncc(C(F)(F)F)cc3Cl)cc2Cl)CC1)c1nccnc1C(F)(F)F [Compound 1-28] | C or higher |
| O=C(NCCc1ccc(Oc2cnccn2)cc1Cl)c1nccnc1C(F)(F)F [Compound 1-7] | C or higher |
| CC(C)(CNC(=O)c1nccnc1C(F)(F)F)c1ccc(Oc2ccc(C(F)(F)F)cn2)cc1Cl [Compound 1-26] | C or higher |
| CC(C)(CNC(=O)c1nccnc1C(F)(F)F)c1ccc(Oc2ncc(Cl)cc2Cl)cc1Cl [Compound 1-27] | C or higher |
| CC(CNC(=O)c1nccnc1C(F)(F)F)c1ccc(Oc2ncc(C(F)(F)F)cc2Cl)cc1Cl (racemic) [Compound 1-22] | C or higher |
| O=C(NCCc1ccc(Oc2nc3ccccc3o2)cc1Cl)c1nccnc1C(F)(F)F [Compound 1-19] | C or higher |
| COC(CNC(=O)c1nccnc1C(F)(F)F)c1ccc(Oc2ncc(Cl)cc2Cl)cc1Cl (racemic) [Compound 1-40] | C or higher |
| O=C(NCCc1ccc(Oc2cc(Cl)nc(Cl)n2)cc1Cl)c1nccnc1C(F)(F)F [Compound 1-11] | C or higher |
| COc1cc(OC)nc(Oc2ccc(CCNC(=O)c3nccnc3C(F)(F)F)c(Cl)c2)n1 [Compound 1-8] | C or higher |
| COC(CNC(=O)c1nccnc1C(F)(F)F)c1ccc(Oc2ncc(C(F)(F)F)cc2Cl)cc1Cl (racemic) [Compound 1-38] | C or higher |
| CC(CNC(=O)c1nccnc1C(F)(F)F)c1ccc(Oc2ccc(C(F)(F)F)cn2)cc1Cl (racemic) [Compound 1-23] | C or higher |
| O=C(NCCc1ccc(Oc2cnc3ccccc3n2)cc1Cl)c1nccnc1C(F)(F)F [Compound 1-16] | C or higher |
| O=C(NCCc1ccc(-c2ccccc2)cc1Cl)c1nccnc1C(F)(F)F [Compound 1-35] | C or higher |
| O=C(NCCc1ccc(Oc2nc3ccc(Cl)cc3s2)cc1Cl)c1nccnc1C(F)(F)F [Compound 1-18] | C or higher |
| O=C(NCCc1ccc(Oc2nc3ccccc3s2)cc1Cl)c1nccnc1C(F)(F)F [Compound 1-17] | C or higher |
| CC(C)(CNC(=O)c1nccnc1C(F)(F)F)c1ccc(Oc2ncc(C(F)(F)F)cc2Cl)cc1Cl [Compound 1-25] | C or higher |

| SMILES | EC50 value, inhibitory effect on the motion of the larvae (graded) |
| --- | --- |
| COC(CNC(=O)c1nccnc1C(F)(F)F)c1ccc(Oc2cccnc2)cc1Cl (racemic) [Compound 1-45] | C or higher |
| O=C(NCCc1ccc(-c2cc(F)cc(F)c2)cc1Cl)c1nccnc1C(F)(F)F [Compound 1-33] | C or higher |
| CC(CNC(=O)c1nccnc1C(F)(F)F)c1ccc(Oc2ncc(Cl)cc2Cl)cc1Cl (racemic) [Compound 1-24] | C or higher |
| Cc1cc(Oc2ccc(CCNC(=O)c3nccnc3C(F)(F)F)c(Cl)c2)nc(Cl)n1 [Compound 1-12] | C or higher |
| O=C(NCCc1ccc(Oc2ccc3ccccc3n2)cc1Cl)c1nccnc1C(F)(F)F [Compound 1-15] | C or higher |
| O=C(NCCc1ccc(Oc2ccnc(Cl)n2)cc1Cl)c1nccnc1C(F)(F)F [Compound 1-10] | C or higher |
| O=C(NCCc1ccc(-c2ccncc2)cc1Cl)c1nccnc1C(F)(F)F [Compound 1-36] | C or higher |
| O=C(NCCc1ccc(Oc2ncc(Br)cc2Cl)cc1Cl)c1nccnc1C(F)(F)F [Compound 1-4] | C or higher |
| O=C(NCCc1ccc(Oc2ccc(C(F)(F)F)cc2)cc1Cl)c1nccnc1C(F)(F)F [Compound 1-21] | C or higher |
| O=C(NCC1(c2ccc(Oc3ccc(C(F)(F)F)cn3)cc2Cl)CC1)c1nccnc1C(F)(F)F [Compound 1-29] | C or higher |
| O=C(NCCc1ccc(-c2cccnc2)cc1Cl)c1nccnc1C(F)(F)F [Compound 1-37] | C or higher |
| O=C(NCCc1ccc(-c2cccc(C(F)(F)F)c2)cc1Cl)c1nccnc1C(F)(F)F [Compound 1-32] | C or higher |
| Cc1cnc(Cl)nc1Oc1ccc(CCNC(=O)c2nccnc2C(F)(F)F)c(Cl)c1 [Compound 1-13] | C or higher |
| COC(CNC(=O)c1nccnc1C(F)(F)F)c1ccc(Oc2ccc(C(F)(F)F)cn2)cc1Cl (racemic) [Compound 1-39] | C or higher |
| O=C(NCCc1ccc(Oc2ncc(Cl)cc2Cl)cc1Cl)c1nccnc1C(F)(F)F [Compound 1-3] | C or higher |
| COC(CNC(=O)c1nccnc1C(F)(F)F)c1ccc(Oc2nc3ccccc3s2)cc1Cl (racemic) [Compound 1-41] | C or higher |
| O=C(NCC1(c2ccc(Oc3ncc(Cl)cc3Cl)cc2Cl)CC1)c1nccnc1C(F)(F)F [Compound 1-30] | C or higher |
